Where two headings read alike, the source gives them in different places.
Tests used:
[1] = Determination of partition coefficients (n-octanol/water, radiotracer method); format: physicochemical
Text: Chemical compounds that cross the blood brain barrier (BBB) should be neutral and lipophilic and also, have a low molecular weight. The partition coefficient (P) provides a measure of the compound lipophilicity and is closely related to drug distribution in the body, its absorption in tissues and its route of excretion (Meade et al. in Curr. Opin. Neurobiol., 2003, 13, 5, 597-602). One method used to determine this parameter is that of radiotracers which relates the radiotracers activity or number of counts in the octanol organic phase with that of the aqueous phase. In this invention the compounds labeling is carried out using the Iodogeno method (^131I).
Determination of Partition Coefficients: A solution of 9 (20 μL), prepared as described in example 10, was added to a mixture of 3 ml of n-octanol and 3 ml of distilled water. After stirring and leaving to stand the mixture, aliquots of 20 μL from each phase were taken to determine the radiometric distribution ratio by an activity meter (CRC 35R, Capintec Inc.). This procedure was repeated to the radiopharmaceutical of ^99mTc-ECD as reference, which is used for cerebral perfusion studies.

[2] = Biodistribution in rats after intravenous injection (gamma camera imaging); format: in vivo, male Wistar rats
Procedure: The arrow indicates the detection of the compound in the region of interest (maximum uptake at about 3 min.).
Animal Studies: A solution of 9 15 MBq ([…]), prepared as described above, was administered to male Wistar rats (160 g, n=3) through the lateral tail vein. Then, images were taken every 15 seconds, for 30 min. (120 images) with a gamma camera (Medis Nucline TH22, Hungary), with a peak centered at 360 keV and a window of ±25%. The image processing was performed on a processing station Segami (USA).

## O=C(O)CCNC(=O)CCC(=O)Nc1cccc2ccccc12
other
  melting point: 180.5 to 181.8 °C

## O=C(O)CCC(=O)Nc1cccc2ccccc12 [Compound 2, 4-(1-naphthylamino)-4-oxobutanoic acid]
other
  melting point: 167 to 169 °C

## CCOC(=O)[C@H](C[S-])[N-]CCN[C@@H](C[S-])C(=O)OCC.[O-2].[Tc] [^99mTc-ECD, ^99mTc-ethylcysteinate diethyl ester, reference compound]
[1]
  Partition coefficient: 40.6
  logP: 1.6

## N1-(2-aminoethyl)-N4-(1-naphthyl) succinimide-^131I [Compound 9]
[2]; 131I-labeled compound
  time of maximum uptake in the region of interest: about 3 min
[2]; after maximum uptake
  excretion of the radioiodinated compound: slow excretion
[1]; n-octanol/distilled water, radiometric distribution ratio
  Partition coefficient: 0.54
[1]; octanol/water
  logP: −0.27

Source: patent US9764047B2, “Method for obtaining novel derivatives of naphthalene for the in vivo diagnosis of alzheimer's disease” (CENTRO DE NEUROCIENCIAS DE CUBA, priority 2009, dated 2017)
